Results reported in PubChem BioAssay AID179 (DTP/NCI, 2004).
The source made the active and inactive calls.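 The calls were made as follows: active = compounds giving half or more protection of infected cells from virus-caused growth loss, again on retest; inactive = the rest.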 Where a SMILES comes first, the peptide text is derived from it. [ ]: non-standard residue; d: D form. The star is where a group is joined. Fmoc = O=C(OCC1c2ccccc2-c2ccccc21)*; pGlu = O=C1CC[CH](C(=O)O)N1; OBn = c1ccc(CO*)cc1; tBu = CC(C)(C)*

Test system: CEM cells HIV-1 protection, formazan growth assay
Experiment: NCI AIDS Antiviral Assay
Conditions: for IC50: measured here: growth of uninfected CEM cells
Method in brief: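 CEM (human) cells, HIV-1 infected vs uninfected, 5-point dosing, formazan growth read-out. Retest threshold 50% protection.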

Compound	EC50 [µM]	IC50 [µM]	outcome
CC(C)CC(NC(=O)C(CO)NC(=O)C(CCCCN)NC(=O)C(CCCCN)NC(=O)C(NC(=O)CNC(=O)C(NC(=O)C(CO)NC(=O)C(NC(=O)C(NC(=O)C(CO)NC(=O)C(CC(N)=O)NC(=O)C1CCC(=O)N1)C(C)C)C(C)C)C(C)O)C(C)C)C(=O)NC(Cc1ccccc1)C(=O)NC(CCC(N)=O)C(=O)O (stereo not drawn) ([pGlu]NSVVSTGVKKSLFQ-OH; configuration not given here)	> 30.9	> 30.9	
Nc1ncnc2c1S(=O)(=O)NCN2	> 178	> 178	
Nc1ccc(C(=O)NN2C(=O)C(Cl)C2c2cc(Br)cc(Br)c2O)cc1 (stereo not drawn)	> 200	15.5	
CC(C)OP(=O)(OC(C)C)/C(=N/N)NNc1ccc([N+](=O)[O-])cc1	> 138	83.2	
CO[C@H]1SC[C@H](OC(C)=O)[C@H](OC(C)=O)[C@H]1OC(C)=O	> 200	> 200	
COC(=O)C1=COC2OC3/C(=C\c4ccc(O)c(OC)c4)C(=O)OC34C=CC1C24 (stereo not drawn)	> 200	24	
O=C(NS(=O)(=O)Nc1ccccc1)OC1CCCC1	> 200	> 200	
NCc1c(C(N)=O)ncn1Cc1ccccc1			inactive
CN(C)c1ccc(C=NC23CC4CC(CC(C4)C2)C3)cc1	> 63.1	> 63.1	
C=C1CC(C)(COc2ccc3c(C)c(Cl)c(=O)oc3c2)OC1=O (stereo not drawn)	> 2	0.617	
O=C1/C(=C/c2ccc(O)cc2)CCc2ccccc21	> 200	20.9	
CN(C)CCCNC(=O)c1cc(NC(=O)c2cc(NC(=O)c3cc(NC(=O)c4cccc(C(=O)Nc5cc(C(=O)Nc6cc(C(=O)Nc7cc(C(=O)NCCCN(C)C)n(C)c7)n(C)c6)n(C)c5)n4)cn3C)cn2C)cn1C	> 100	> 100	
CCCc1noc(C(F)(F)Sc2ncccn2)n1	> 200	> 200	
O=C1/C(=C\c2cccc(Oc3ccccc3)c2)SC(c2ccccc2)N1Cc1ccccc1 (stereo not drawn)	> 20	1.29	
CC(C)CCCC(C)[C@H]1CCC2[C@@H]3CCC4Nc5[nH]ncc5C[C@]4(C)C3CC[C@@]21C (stereo partly drawn)			inactive
Cc1nc(-c2cc3ccccc3oc2=O)cs1			inactive
CCCc1cc(=O)oc2c3c(c4c(c12)OC(C)(C)[C@H](OC(=O)c1ccc(Br)cc1)[C@@H]4OC(=O)c1ccc(Br)cc1)O[C@@H](C)[C@H](C)[C@@H]3OC(=O)c1ccc(Br)cc1	> 200	> 200	
COc1ccc(OC)c(CNc2ccc(C(=O)O)cc2)c1	> 200	> 200	
COc1cc2c(cc1OC)C(=O)N1CCCC1CS2 (stereo not drawn)	> 200	> 200	
O=C(CCc1ccc(O)cc1)NCCc1ccc(O)cc1	38.9	166	

Compound	EC50 [µM]	IC50 [µM]	outcome
C/C(=C\CNc1ncnc2c1ncn2CCC#N)CO	> 200	> 200	
Cn1c2ccccc2c2n[nH]c(=S)nc21	55	> 200	
Nc1c2ccccc2nc2ccc3c(=O)cc(-c4ccccc4)oc3c12	> 20	0.912	
O=[N+]([O-])c1ccc(/C=N/Nc2nnc3c4ccccc4c4ncccc4c3n2)o1	> 100	> 100	
CCCCCC=C(c1cc(Cl)c(OC)c(C(=O)OC)c1)c1cc(Cl)c(OC)c(C(=O)OC)c1	17.8	28.8	
CC1=C(C)C2(C#N)C(=O)N3C(=NC(c4ccco4)NC3c3ccco3)C2(C#N)C(c2ccco2)N1 (stereo not drawn)	> 200	> 200	
C/C=C/C(=O)[O-].C/C=C/C(=O)[O-].N.N.N.N.[Co+3].[O-][Cl+3]([O-])([O-])[O-]			inactive
CC1(C(=O)O)OC12CCCCC2 (stereo not drawn)	> 200	> 200	
CNS(=O)(=O)NN(C)S(=O)(=O)c1ccc(OC)cc1	> 407	105	
CCOP(=O)(OCC)OCCOCCOP(=O)(OCC)OCC	> 200	> 200	
C=C1CC[C@@](C)(c2ccc(C)cc2)C1C (stereo partly drawn)			inactive
O=C(NCc1ccccc1)c1c(O)c2ccccc2[nH]c1=O	> 200	> 200	
CC(OC(C)(C)C)C(NC(=O)OCC1c2ccccc2-c2ccccc21)C(=O)NC(Cc1ccccc1)C(=O)OCc1ccccc1 (stereo not drawn) (Fmoc-Thr(tBu)-Phe-OBn; configuration not given here)	> 200	> 200	
CC1(CCC2C=CCC2)CCCNC1=S (stereo not drawn)	38	89.1	
c1cc2cc(c1)CN1CCNCCN(CCNCC1)Cc1cccc(c1)CN1CCNCCN(CCNCC1)C2	> 50.1	> 50.1	
NCCCCC(NC(=O)C(CO)NC(=O)C(CO)NC(=O)CN)C(=O)NC(CO)C(=O)NC(CCCCN)C(=O)N1CCCC1C(=O)NC(CCCCN)C(=O)NC(CC(=O)O)C(N)=O (stereo not drawn) (H-GSSKSKPKD-NH2; configuration not given here)	> 269	> 269	
NCCSC(C[N+](=O)[O-])c1ccccc1Cl (stereo not drawn)	> 200	2.19	
Cn1c(=O)nc2n(-c3ccc(F)cc3)c3ccccc3nc-2c1=O			inactive
COc1cccc(C2ON=C(c3ccccc3)N2C23CC4CC(CC(C4)C2)C3)c1 (stereo not drawn)	> 200	58.9	
CCc1nnc2sc(=S)[nH]n12			inactive

Compound	EC50 [µM]	IC50 [µM]	outcome
COc1ccc2cc3c4cc(OC)c(OC)cc4ccn3c2c1	> 23.4	22.9	
CCCN(CCCC(NC(C)=O)C(=O)NCc1ccccc1)C(=O)N(C)N=O (stereo not drawn)	> 174	> 174	
NN1C(=O)CSC1=S	> 912	295	
CC(=O)NC(CCCCNC(=O)N(CCCl)N=O)C(=O)NCc1ccccc1 (stereo not drawn)	> 603	132	
CS(=O)(=O)SCCCS(=O)(=O)O	> 912	> 912	
O=C1/C(=C/c2cccc([N+](=O)[O-])c2)CCCc2ccccc21	> 200	6.31	
CCCCCN1CCN(c2ncccn2)CC1	> 200	> 200	
CC(C)(C)OC(=O)NC(CCC(=O)OCc1ccccc1)C(=O)NCCCO (stereo not drawn)	> 200	> 200	
COC=C=CC(C)(C)OC	> 550	> 550	
CC(=O)c1cccc(C(C)=O)c1N=Cc1ccccc1			inactive
CCCCCCCCCCCCCCCc1cc(=O)c2c(O)cc(O)cc2o1			inactive
CCOC(=O)NC(=O)c1cn(CC(=O)NCC(=O)NCC(=O)NCCCN2CCN(CCCNC(=O)CNC(=O)CNC(=O)Cn3cc(C(=O)NC(=O)OCC)c(=O)[nH]c3=O)CC2)c(=O)[nH]c1=O			inactive
CCC(C)[N-]c1cccc[n+]1[O-].CCC(C)[N-]c1cccc[n+]1[O-].[Cu+2] (stereo not drawn)	> 200	83.2	
CC(=O)N1[C@H](C(=O)O)CS[C@H]1c1ccc(F)cc1			inactive
COC1=CC(=O)[C@H]2[C@H](C)C(c3ccccc3)[C@@]2(C)C1=O (stereo partly drawn)	> 933	603	
CO/C(=N\N=C\c1ccc(OC)cc1OC)c1ccncc1	> 229	105	
O=C(/C=C/c1ccc[nH]1)c1ccccc1	> 347	120	
COc1ccc2c(c1)-c1c(c3cc(OC)ccc3n1CCCN(C)C)CC2	> 200	5.5	
Cc1cccc(C(C)(C)C)c1NC(=O)CCc1nc(=S)[nH][nH]1	> 562	240	
CC(=O)CC(C)=O.CC(=O)CC(C)=O.CC(=O)CC(C)=O.CC(=O)CC(C)=O.[Zr]			inactive
